{"source": "patent US7816410B2", "about": "“Pesticidal compositions” (priority 2003, dated 2010)", "format_in_all_cases": "in vivo", "settings_in_all_cases": "15 gai/hL", "key": {"[1]": {"tested_on": "glasshouse whitefly (Trialeurodes vaporariorum)", "assay": "Whitefly ovicide curative test", "experimental": "(§1) The aim of this study was to determine the efficacy of the compositions of the invention on separate life stages of the glasshouse whitefly (Trialeurodes vaporariorum). Three studies were undertaken, the first to determine the efficacy of the composition of the invention as an ovicide in both protectant and curative treatments. The following composition (Composition B) was prepared: All treatments were applied to tobacco plants (var. Tobacco nicotiana) using a hand-held atomiser (CEME-984), applied to both surfaces of the leaf, to incipient run-off. The composition was applied at 5000, 1000, 200, 100 and 50 mL product/hL, Imidacloprid (reference item) was applied at 15 gai/hL and controls were sprayed with deionised water only. Three replicate plants were sprayed for each treatment. The treated plants were maintained in a controlled environment room at 22.9-34.4° C., with lighting on a 16 h light/8 h dark cycle. Light intensity was recorded as 870-1464 lux. Relative humidity was recorded as being between 25.1-85.2%. For the ovicide test, plants were treated (both infested and uninfested with eggs). For the curative test, leaf discs were taken and egg numbers counted. For the protectant test, treated plants were infested after treatment then leaf discs taken with known numbers of eggs. […]"}, "[2]": {"tested_on": "glasshouse whitefly (Trialeurodes vaporariorum)", "assay": "Whitefly nymph curative test", "source_text": "The aim of this study was to determine the efficacy of the compositions of the invention on separate life stages of the glasshouse whitefly (Trialeurodes vaporariorum).\nA second test was to determine the efficacy of composition B as a curative treatment against whitefly nymphs and the third test was to determine the effects of the composition as a (repellent) protectant spray against whitefly adults.\nAll treatments were applied to tobacco plants (var. Tobacco nicotiana) using a hand-held atomiser (CEME-984), applied to both surfaces of the leaf, to incipient run-off. The composition was applied at 5000, 1000, 200, 100 and 50 mL product/hL, Imidacloprid (reference item) was applied at 15 gai/hL and controls were sprayed with deionised water only.\nThree replicate plants were sprayed for each treatment. The treated plants were maintained in a controlled environment room at 22.9-34.4° C., with lighting on a 16 h light/8 h dark cycle. Light intensity was recorded as 870-1464 lux. Relative humidity was recorded as being between 25.1-85.2%.\nFor the curative nymph test, leaves with nymphs 7-12 days old were treated and assessments of mortality made at 4, 7 and 10 days after application."}, "[3]": {"tested_on": "glasshouse whitefly (Trialeurodes vaporariorum)", "assay": "Whitefly adult repellence (protectant) test", "source_text": "The aim of this study was to determine the efficacy of the compositions of the invention on separate life stages of the glasshouse whitefly (Trialeurodes vaporariorum). A second test was to determine the efficacy of composition B as a curative treatment against whitefly nymphs and the third test was to determine the effects of the composition as a (repellent) protectant spray against whitefly adults. All treatments were applied to tobacco plants (var. Tobacco nicotiana) using a hand-held atomiser (CEME-984), applied to both surfaces of the leaf, to incipient run-off. The composition was applied at 5000, 1000, 200, 100 and 50 mL product/hL, Imidacloprid (reference item) was applied at 15 gai/hL and controls were sprayed with deionised water only. Three replicate plants were sprayed for each treatment. The treated plants were maintained in a controlled environment room at 22.9-34.4° C., with lighting on a 16 h light/8 h dark cycle. Light intensity was recorded as 870-1464 lux. Relative humidity was recorded as being between 25.1-85.2%. The adult protectant test, assessed the numbers of alive adults on treated leaves after immersion in an adult whitefly infested chamber, 15 and 18 days after application."}, "[4]": {"tested_on": "glasshouse whitefly (Trialeurodes vaporariorum)", "assay": "Whitefly ovicide protectant test", "experimental": "as §1"}}, "data": [{"compound": "O=[N+]([O-])NC1=NCCN1Cc1ccc(Cl)nc1", "note": "[Imidacloprid]", "values": [{"measurement": "percentage whitefly egg hatch", "setting": "[1]; 1 DAA", "value": 0.0, "unit": "%"}, {"measurement": "percentage whitefly egg hatch", "setting": "[1]; 3 DAA", "value": 75.2, "unit": "%"}, {"measurement": "percentage whitefly egg hatch", "setting": "[1]; 7 DAA", "value": 91.4, "unit": "%"}, {"measurement": "percentage whitefly nymph mortality", "setting": "[2]; 4 DAA", "value": 100.0, "unit": "%"}, {"measurement": "percentage whitefly nymph mortality", "setting": "[2]; 7 DAA", "value": 100.0, "unit": "%"}, {"measurement": "percentage whitefly nymph mortality", "setting": "[2]; 10 DAA", "value": 100.0, "unit": "%"}, {"measurement": "number of adult whitefly per leaf", "setting": "[3]; 15 DAA", "value": 0}, {"measurement": "number of adult whitefly per leaf", "setting": "[3]; 18 DAA", "value": 0}, {"measurement": "percentage whitefly egg hatch", "setting": "[4]; 1 DAA", "value": 0.0, "unit": "%"}, {"measurement": "percentage whitefly egg hatch", "setting": "[4]; 3 DAA", "value": 0.0, "unit": "%"}, {"measurement": "percentage whitefly egg hatch", "setting": "[4]; 7 DAA", "value": 0.0, "unit": "%"}]}]}
